From ChEMBL document CHEMBL1909046, “DrugMatrix in vitro pharmacology data”

Tests used:
Glycine receptor = Glycine receptor (Rattus norvegicus, UniProt P22771+P24524+P07727+P20781); format: cell membranes, Wistar, Spinal cord, Membrane; also: in other assays of this panel Not Active means under 50% inhibition at 10 µM
[1] = target: Matrix metalloproteinase-9 (Homo sapiens, UniProt P14780); experiment: biochemical; format: cell-based;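 also: inhibition of isolated MMP-9 enzyme activity toward a synthetic peptide substrate, from the DrugMatrix protease screening panel; in other assays of this panel Not Active means under 50% inhibition at 10 µM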
[2] = target: T1, 5-hydroxytryptamine receptor 1A (Rattus norvegicus, UniProt P19327); format: cell membranes, Membrane; settings: cho-k1; also: in other assays of this panel Not Active means under 50% inhibition at 10 µM
T1 sequence (P19327 whole entry): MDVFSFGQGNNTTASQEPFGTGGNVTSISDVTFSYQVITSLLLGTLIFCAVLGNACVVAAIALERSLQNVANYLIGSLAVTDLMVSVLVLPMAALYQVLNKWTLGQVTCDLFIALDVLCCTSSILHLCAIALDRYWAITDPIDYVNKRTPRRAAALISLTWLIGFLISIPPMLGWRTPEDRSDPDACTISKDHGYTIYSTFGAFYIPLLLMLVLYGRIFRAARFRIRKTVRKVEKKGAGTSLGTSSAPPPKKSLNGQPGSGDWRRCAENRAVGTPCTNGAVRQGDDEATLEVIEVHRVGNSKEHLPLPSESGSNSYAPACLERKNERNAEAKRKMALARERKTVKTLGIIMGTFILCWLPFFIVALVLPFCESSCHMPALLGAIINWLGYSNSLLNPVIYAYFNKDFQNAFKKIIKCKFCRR

[3] = target: T2, Angiotensin-converting enzyme (Oryctolagus cuniculus, UniProt P12822); format: tissue-based, Lung;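 also: enzymatic inhibition of angiotensin-converting enzyme measured with FAPGG as the substrate; in other assays of this panel Not Active means under 50% inhibition at 10 µM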
T2 sequence (P12822 whole entry): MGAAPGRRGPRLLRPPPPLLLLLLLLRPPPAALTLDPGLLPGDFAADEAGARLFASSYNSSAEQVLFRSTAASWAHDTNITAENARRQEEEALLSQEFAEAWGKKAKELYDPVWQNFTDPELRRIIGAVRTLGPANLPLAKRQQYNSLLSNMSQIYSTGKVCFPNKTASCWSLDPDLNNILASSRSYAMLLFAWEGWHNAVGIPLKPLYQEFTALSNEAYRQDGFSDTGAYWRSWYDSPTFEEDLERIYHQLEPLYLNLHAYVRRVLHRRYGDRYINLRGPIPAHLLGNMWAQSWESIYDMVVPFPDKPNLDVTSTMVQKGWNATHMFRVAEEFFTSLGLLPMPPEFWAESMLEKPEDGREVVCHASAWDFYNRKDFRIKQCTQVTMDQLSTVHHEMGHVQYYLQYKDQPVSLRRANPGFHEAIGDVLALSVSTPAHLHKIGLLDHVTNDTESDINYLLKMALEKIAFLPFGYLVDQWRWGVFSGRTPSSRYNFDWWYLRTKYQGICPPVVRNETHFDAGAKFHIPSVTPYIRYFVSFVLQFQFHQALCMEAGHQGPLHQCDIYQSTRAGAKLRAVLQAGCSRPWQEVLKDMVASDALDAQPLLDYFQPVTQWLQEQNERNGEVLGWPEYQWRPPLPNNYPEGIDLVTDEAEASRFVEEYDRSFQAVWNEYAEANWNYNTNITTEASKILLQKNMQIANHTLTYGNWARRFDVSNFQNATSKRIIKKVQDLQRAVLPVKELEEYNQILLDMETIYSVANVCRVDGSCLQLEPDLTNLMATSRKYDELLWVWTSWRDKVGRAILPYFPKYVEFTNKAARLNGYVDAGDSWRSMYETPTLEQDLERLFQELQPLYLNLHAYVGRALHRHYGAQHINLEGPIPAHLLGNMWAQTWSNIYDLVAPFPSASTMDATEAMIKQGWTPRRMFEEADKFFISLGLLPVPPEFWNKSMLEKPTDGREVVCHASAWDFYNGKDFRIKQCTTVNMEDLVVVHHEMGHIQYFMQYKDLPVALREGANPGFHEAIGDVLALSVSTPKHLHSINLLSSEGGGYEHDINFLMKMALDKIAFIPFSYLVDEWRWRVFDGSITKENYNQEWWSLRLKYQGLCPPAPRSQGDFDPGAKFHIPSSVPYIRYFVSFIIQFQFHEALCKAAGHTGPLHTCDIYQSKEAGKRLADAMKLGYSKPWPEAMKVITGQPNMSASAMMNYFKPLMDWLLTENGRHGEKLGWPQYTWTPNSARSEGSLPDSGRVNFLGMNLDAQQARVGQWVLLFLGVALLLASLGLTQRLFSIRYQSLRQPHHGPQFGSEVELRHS

Adenosine receptor A3 = target: T3, Adenosine receptor A3 (Homo sapiens, UniProt P0DMS8); format: cell membranes, CHO-K1, Membrane; settings: cho-k1
T3 sequence (P0DMS8 whole entry): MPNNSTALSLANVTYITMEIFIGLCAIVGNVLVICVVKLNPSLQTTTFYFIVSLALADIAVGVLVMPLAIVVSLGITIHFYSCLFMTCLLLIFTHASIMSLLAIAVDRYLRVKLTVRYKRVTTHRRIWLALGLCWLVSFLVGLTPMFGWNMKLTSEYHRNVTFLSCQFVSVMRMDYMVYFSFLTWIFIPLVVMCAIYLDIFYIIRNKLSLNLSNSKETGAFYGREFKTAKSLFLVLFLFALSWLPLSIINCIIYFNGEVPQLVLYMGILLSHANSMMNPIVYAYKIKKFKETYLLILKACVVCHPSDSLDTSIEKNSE

Leukotriene C4 synthase = target: T4, Leukotriene C4 synthase (Cavia porcellus, UniProt A6XA80); format: tissue-based, Lung
T4 sequence (A6XA80 whole entry): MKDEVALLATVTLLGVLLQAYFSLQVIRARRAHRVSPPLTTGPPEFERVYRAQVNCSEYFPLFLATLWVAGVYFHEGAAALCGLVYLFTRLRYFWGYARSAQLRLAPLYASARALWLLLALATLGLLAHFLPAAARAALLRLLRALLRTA

[4] = DRUGMATRIX: beta-Lactamase enzyme inhibition (substrate: Nitrocefin); parameters: species or system Bacillus cereus; settings: Not Active = under 50% inhibition at 10 µM

Sequence of Matrix metalloproteinase-9 (P14780 whole entry): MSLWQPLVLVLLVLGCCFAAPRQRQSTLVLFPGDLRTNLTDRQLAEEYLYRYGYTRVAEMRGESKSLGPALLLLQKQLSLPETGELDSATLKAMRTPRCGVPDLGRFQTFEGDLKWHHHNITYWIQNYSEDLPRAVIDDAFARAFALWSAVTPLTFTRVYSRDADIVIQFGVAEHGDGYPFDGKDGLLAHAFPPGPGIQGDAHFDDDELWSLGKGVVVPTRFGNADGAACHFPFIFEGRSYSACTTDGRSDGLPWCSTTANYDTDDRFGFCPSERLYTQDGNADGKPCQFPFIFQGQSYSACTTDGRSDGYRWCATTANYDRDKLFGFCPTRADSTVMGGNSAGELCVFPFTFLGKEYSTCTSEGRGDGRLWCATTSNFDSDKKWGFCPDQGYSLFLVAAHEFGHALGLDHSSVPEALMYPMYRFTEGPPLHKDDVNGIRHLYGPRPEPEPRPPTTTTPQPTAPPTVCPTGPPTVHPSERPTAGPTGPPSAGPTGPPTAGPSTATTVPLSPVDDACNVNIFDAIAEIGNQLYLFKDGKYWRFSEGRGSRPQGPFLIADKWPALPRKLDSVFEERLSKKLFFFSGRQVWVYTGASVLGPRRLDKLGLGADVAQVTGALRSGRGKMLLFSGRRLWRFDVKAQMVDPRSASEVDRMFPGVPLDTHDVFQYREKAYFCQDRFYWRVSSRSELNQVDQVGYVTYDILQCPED

CC(C(=O)O)c1cccc(C(=O)c2ccccc2)c1 (stereo not drawn) [KETOPROFEN]
Not Active: IC50 (Glycine receptor) | IC50 [1] | IC50 [2] | IC50 [3] | IC50 (Adenosine receptor A3) | IC50 (Leukotriene C4 synthase) | IC50 [4] | Ki [4]

Nc1ccn([C@@H]2CS[C@H](CO)O2)c(=O)n1 [LAMIVUDINE]
Not Active: IC50 (Glycine receptor) | IC50 [1] | IC50 [2] | IC50 [3] | IC50 (Adenosine receptor A3) | IC50 (Leukotriene C4 synthase) | IC50 [4] | Ki [4]

O=S(=O)([O-])CCS.[Na+] [MESNA]
Not Active: IC50 (Glycine receptor) | IC50 [1] | IC50 [2] | IC50 [3] | IC50 (Adenosine receptor A3) | IC50 (Leukotriene C4 synthase) | IC50 [4] | Ki [4]

C#C[C@]1(O)CC[C@H]2[C@@H]3CCc4cc(OC)ccc4[C@H]3CC[C@@]21C [MESTRANOL]
Not Active: IC50 (Glycine receptor) | IC50 [1] | IC50 [2] | IC50 [3] | IC50 (Adenosine receptor A3) | IC50 (Leukotriene C4 synthase) | IC50 [4] | Ki [4]

CC(=O)Nc1cccc(O)c1 [METACETAMOL]
Not Active: IC50 (Glycine receptor) | IC50 [1] | IC50 [2] | IC50 [3] | IC50 (Adenosine receptor A3) | IC50 (Leukotriene C4 synthase) | IC50 [4] | Ki [4]

Cc1ncc([N+](=O)[O-])n1CCO [METRONIDAZOLE]
Not Active: IC50 (Glycine receptor) | IC50 [1] | IC50 [2] | IC50 [3] | IC50 (Adenosine receptor A3) | IC50 (Leukotriene C4 synthase) | IC50 [4] | Ki [4]

CC(C)(C(=O)c1cccnc1)c1cccnc1 [METYRAPONE]
Not Active: IC50 (Glycine receptor) | IC50 [1] | IC50 [2] | IC50 [3] | IC50 (Adenosine receptor A3) | IC50 (Leukotriene C4 synthase) | IC50 [4] | Ki [4]

Oc1ccc(OCc2ccccc2)cc1 [MONOBENZONE]
Not Active: IC50 (Glycine receptor) | IC50 [1] | IC50 [2] | IC50 [3] | IC50 (Adenosine receptor A3) | IC50 (Leukotriene C4 synthase) | IC50 [4] | Ki [4]

CC(C)(Oc1ccc(C2CCCc3ccccc32)cc1)C(=O)O (stereo not drawn) [NAFENOPIN]
Not Active: IC50 (Glycine receptor) | IC50 [1] | IC50 [2] | IC50 [3] | IC50 (Adenosine receptor A3) | IC50 (Leukotriene C4 synthase) | IC50 [4] | Ki [4]

COc1ccc2cc([C@H](C)C(=O)O)ccc2c1 [NAPROXEN]
Not Active: IC50 (Glycine receptor) | IC50 [1] | IC50 [2] | IC50 [3] | IC50 (Adenosine receptor A3) | IC50 (Leukotriene C4 synthase) | IC50 [4] | Ki [4]

CC(C)[C@H]1CC[C@H](C(=O)N[C@H](Cc2ccccc2)C(=O)O)CC1 [NATEGLINIDE]
Not Active: IC50 (Glycine receptor) | IC50 [1] | IC50 [2] | IC50 [3] | IC50 (Adenosine receptor A3) | IC50 (Leukotriene C4 synthase) | IC50 [4] | Ki [4]
